According to a melting point compilation (Tetko et al.; mined from patent text by program, amines drawn as free bases though some values may be those of a salt):

First: O=C(O)CN1C(=O)C(Cl)=C(Cl)C1=O
Second: O=C1NCCN1Cc1ccc(Cl)cc1
The melting point of the first is higher: 191 to 192 °C for the first, 164 to 166 °C for the second.

First: Cc1nc(N2CCc3ccccc3CC2)c(C#N)c(=O)n1CC=C(F)F
Second: Cc1nc2sc(S(=O)(=O)Cl)cc2c(=O)n1-c1ccccc1Cl
The melting point of the first is lower: 158 to 159 °C for the first, 172 to 174 °C for the second.

First: Cc1oc(-c2ccccc2)nc1COc1ccccc1CON=C(CCC(=O)O)c1ccccc1
Second: CCOC(=O)C(=NOC(CC)C(=O)O)c1csc(NC(c2ccccc2)(c2ccccc2)c2ccccc2)n1 (centres undefined)
The melting point of the first is lower: 116 to 117 °C for the first, 154 °C for the second.

First: O=P(c1ccccc1)(c1ccccc1)C(O)C(O)P(=O)(c1ccccc1)c1ccccc1 (centres undefined)
Second: CCC1(Cc2ncn(C(c3ccccc3)(c3ccccc3)c3ccccc3)c2C)CCc2c(C)c3ccccc3n2C1=O (centres undefined)
The melting point of the first is higher: 211 to 214 °C for the first, 83 to 98 °C for the second.

First: O=[N+]([O-])c1cccc(C(O)CN2CCNC2=S)c1 (centres undefined)
Second: O=C(O)c1cc([N+](=O)[O-])ccc1C1SCCCS1
The melting point of the first is lower: 163 °C for the first, 192 to 194 °C for the second.

First: COc1cc(Nc2c(C#N)cnc3cc(-c4ccc(CN5CCC(CC(=O)O)CC5)cc4)ccc23)c(Cl)cc1Cl
Second: COc1ccc(Nc2cc(-c3ccncc3)nc3ccccc23)cc1Cl
The melting point of the first is lower: 239 to 240 °C for the first, 280 to 282 °C for the second.

Compared with `O=C(c1ccc(-c2ccccc2)cc1)N1Cc2ccccc2Nc2ccccc21`, `Cc1ccccc1C(=O)Nc1ccc(C(=O)N2CCCC(NC(=O)Cn3ccnc3)c3ccccc32)cc1` (centres undefined) is higher in melting point: 180 to 182 °C for the first, 250 to 252 °C for the second.

Compared with `COC1=C(C(=O)c2ccc(OC)cc2)C(c2ccc(C(C)(C)C)cc2)N(c2nnc(C)s2)C1=O` (centres undefined), `COc1ccc(C(=O)c2ccc([N+](=O)[O-])c(CO)c2)cc1` is lower in melting point: 235 to 237 °C for the first, 116 °C for the second.

First: Cc1oc(-c2ccccc2)nc1C(=O)NN
Second: CC1=NN(C)C(=O)C1C(=O)Nc1ccccc1 (centres undefined)
The melting point of the first is lower: 144 to 146 °C for the first, 231 to 233 °C for the second.

Compared with `C=CC1CCC2(C)C(CCC3C4CCC(=O)C4(C)CCC32)C1` (centres undefined), `COC(=O)C1CCC2C3CCC4CC(OC(=O)CCl)CCC4(C)C3C(OC(=O)CCl)CC12C` (centres undefined) is higher in melting point: 100 to 102 °C for the first, 149 to 155 °C for the second.

First: CC1(C)Cc2nc(N3CCOc4ccc(Br)cc43)sc2C(=O)N1
Second: CC[C@H]1COC(=O)N1c1nc(-c2ccc(C#N)cc2)c(C#N)s1
The melting point of the first is lower: 155 °C for the first, 201 to 203 °C for the second.

First: CS(=O)(=O)c1ccc(-c2cnn(CC(F)(F)F)c(=O)c2OCc2ccco2)cc1
Second: CS(=O)(=O)c1ccc(-c2[nH]nc3c2-c2ccccc2CC3)cc1
The melting point of the first is lower: 113 to 115 °C for the first, 178 to 180 °C for the second.

First: Cc1cc(OCC2(O)CCS(=O)(=O)CC2)cc(C)c1-c1cccc(CNc2ccc(CCC(=O)O)c(F)c2)c1
Second: Cc1cc(Cl)ccc1NC(=O)n1nc(Oc2cccc(C(F)(F)F)c2)cc1C
The melting point of the first is higher: 178 °C for the first, 95 to 96 °C for the second.

First: CN(C)S(=O)(=O)c1cccc(-c2ccnc(C(=O)N(O)Cc3ccccc3)c2)c1
Second: CN(Cc1ccccc1)C(=O)c1cnc2c([N+](=O)[O-])cccc2c1Cl
The melting point of the first is lower: 110 to 115 °C for the first, 120 to 121 °C for the second.

Compared with `O=C(Nc1cc(-c2c(-c3ccc(Cl)cc3)nc3cccnn23)ccn1)c1ccccc1`, `O=C(Nc1cccc(-c2ccnc3c(C(=O)c4cccs4)cnn23)c1)c1cccc(Br)c1` is higher in melting point: 218 to 219 °C for the first, greater than 300 °C for the second.

First: O=C(Nc1ccc(Oc2ccnc(NC3CCCC3)n2)c2ccccc12)c1cc(F)cc(N2CCOCC2)c1
Second: CCOC(=O)CN1CCN(C(C)(C)C=CC(=O)Nc2cc3c(Nc4ccc(F)c(Cl)c4)ncnc3cc2OCC2CC2)CC1
The melting point of the first is lower: 119 to 120 °C for the first, 165 to 167 °C for the second.

Compared with `CON=C(c1cc(C)no1)c1ccccc1COc1ncc(C(F)(F)F)cc1Cl`, `O=S(=O)(Oc1ccc2ccccc2c1-c1nnc(Cl)c2ccccc12)C(F)(F)F` is lower in melting point: 77 to 79 °C for the first, 54 to 55 °C for the second.

Compared with `Oc1cc(C(F)(F)F)nn1C1CCCCO1` (centres undefined), `CSc1nn(C(=O)NC2CCCCC2)c(=O)n1C` is higher in melting point: 129 to 130 °C for the first, 136 °C for the second.

First: CS(=O)c1ccc(-n2cnc3ccc(-c4nnc(CCc5cccc(C(F)(F)F)c5)o4)cc32)cc1 (centres undefined)
Second: Cn1cnc2ccc(-c3nnc(CCc4cccc(F)c4)o3)cc21
The melting point of the first is higher: 169 to 170 °C for the first, 145 to 146 °C for the second.

First: CN1C[C@H](CCN2CCC(O)(c3ccc(Cl)cc3)CC2)C=C2c3cccc4[nH]cc(c34)C[C@H]21
Second: CCN1CCC2(CC1)OC(c1ccccc1)c1ccccc12 (centres undefined)
The melting point of the first is higher: 154 to 157 °C for the first, 113 to 115 °C for the second.

First: CC1(C)CC(=O)CC(C)(P(=O)(O)O)C1 (centres undefined)
Second: Cc1c(C)c(N2CCN(c3ccccc3)CC2)c(C)c2c1OC(C)(C)C2O (centres undefined)
The melting point of the first is higher: 167 to 168 °C for the first, 142 to 144 °C for the second.

First: COc1cc(C=O)c(Br)c(Cl)c1OC
Second: COc1cc(CC#Cc2c(C)nc(N)nc2N)cc(OC)c1OC
The melting point of the first is lower: 118 to 119 °C for the first, 164 to 166 °C for the second.

Compared with `CN(O)C(=O)NCCCCCOc1ccc(-c2ccccc2)cc1`, `CCC(=NNC(=O)c1ccccc1)c1ccncc1` is higher in melting point: 153 to 154 °C for the first, 178 °C for the second.

First: Cc1nc(-c2cccc(C(=O)O)c2)sc1C(=O)O
Second: O=C(O)c1cc2ccsc2nc1C(=O)O
The melting point of the first is higher: 295 to 296 °C for the first, 272 to 275 °C for the second.

First: CNC(Cc1cc(Cl)ccc1N)c1sccc1C (centres undefined)
Second: Cc1onc(-c2cccc(Cl)c2)c1CO
The melting point of the first is lower: 59 to 61 °C for the first, 66 to 68 °C for the second.

First: CNC(=S)NCCOCc1c[nH]cn1
Second: O=C(O)COCCc1ccccc1
The melting point of the first is higher: 96 to 98 °C for the first, 46 to 48 °C for the second.

Compared with `Cc1ccccc1-c1cn(C)cc(-c2ccccc2Cl)c1=O`, `Nc1cc(C=C2OC(=O)c3ccccc32)ccc1F` is higher in melting point: 87 to 91 °C for the first, 189 to 191 °C for the second.

First: CCOC(=O)c1cc2cc(OCCCOC)cc(N(C)S(=O)(=O)c3ccccn3)c2[nH]1
Second: CCCCCOc1cc(C=Cc2nc3c(s2)NCCCC3)ccc1OC
The melting point of the first is lower: 98 to 99 °C for the first, 124 to 125 °C for the second.

First: COC(=O)c1cc(CN=[N+]=[N-])cc([N+](=O)[O-])c1
Second: CCOc1cc(=O)n(-c2ccc([N+](=O)[O-])cc2)[nH]1
The melting point of the first is lower: 44 to 46 °C for the first, 143 °C for the second.

Compared with `COc1ccc(-c2noc3c2CCC(C(=O)O)CC3)cc1` (centres undefined), `CCc1ccc(C(=O)COc2ccc(CC3SC(=O)NC3=O)cc2)nc1` (centres undefined) is higher in melting point: 147 to 148 °C for the first, 148 to 149 °C for the second.

Compared with `COC(=O)C(=O)C1=C(O)c2ccsc2SC1`, `COC(=O)C(C)(C)OCc1cc(-c2ccc(Cl)s2)no1` is higher in melting point: 53 to 56 °C for the first, 128 to 130 °C for the second.

First: CCCC(=O)CS(N)(=O)=O
Second: CCOC(=O)COCC(=O)c1ccccc1
The melting point of the first is higher: 117 °C for the first, 33 to 35 °C for the second.

First: CCC(C)CNN(NCC(C)CC)C(=O)c1cc(NC(=O)CCl)cc(C(N)=O)c1 (centres undefined)
Second: CC(=O)OC[C@H]1O[C@@H]2[C@@H](Sc3ccc(Cl)cc3N2CCCN(C)C)[C@@H](OC(C)=O)[C@@H]1OC(C)=O
The melting point of the first is higher: 160 to 162 °C for the first, 149 to 151 °C for the second.

First: CCc1nc(C(=O)O)c(CC)c(C)c1C(c1cc(F)ccc1F)S(=O)(=O)c1ccc(F)cc1 (centres undefined)
Second: Cc1nc(-c2ccc(F)cc2)n(-c2ccc(S(N)(=O)=O)cc2)n1
The melting point of the first is lower: 151 to 153 °C for the first, 220 to 221 °C for the second.

Compared with `COc1cc(F)c(C(O)CNCc2csc(NC(C)=O)n2)cc1OC` (centres undefined), `CCCc1c(OCCCCCCc2cc(OC)c(OC)cc2F)ccc(C(=O)O)c1O` is lower in melting point: 173 to 175 °C for the first, 127 to 130 °C for the second.

First: OC(Cn1ccnc1)c1ccc2c(c1)Cc1ccccc1-2 (centres undefined)
Second: OC(CN1CC=C(c2ccccc2)CC1)c1ccc(Cc2ccc(Cl)cc2)cc1 (centres undefined)
The melting point of the first is higher: 196 to 199 °C for the first, 135 to 137 °C for the second.

Compared with `COc1ccc(Cc2ccc(C(=O)N(C3CCCC3)C3CCCC3)cc2)cc1OC`, `COC(=O)c1ccc(N2C3CCC2CN(CC(=O)N2CC=C(c4cccc5ccsc45)CC2)C3)nc1` is higher in melting point: 138 to 142 °C for the first, 153 to 154 °C for the second.

First: COc1cc(C2c3cc4c(cc3C(N)C3COC(=O)C23)OCO4)cc(OC)c1O[Si](C)(C)C(C)(C)C (centres undefined)
Second: CCCCCc1ccc(C(O)(c2c(C)cc(C)c(C)c2OC)C(C)C)cc1 (centres undefined)
The melting point of the first is higher: 236 to 238 °C for the first, 55 °C for the second.

Compared with `CCOC(=O)N1CCN(c2ncnc3c2cnn3Cc2ccncc2)CC1`, `CCOC(=O)C(C(=O)C(C)C)C1c2nccnc2C(=O)N1c1ccc2ccc(Cl)nc2n1` (centres undefined) is higher in melting point: 123 to 124 °C for the first, 214 °C for the second.

Compared with `CC(C)CCC(O)C(CC1CCCCC1)NC(=O)C(Cc1c[nH]cn1)N(C)C(=O)C(Cc1ccccc1)NC(=O)N(C)CCN(C)C(=O)N1CCOCC1` (centres undefined), `Cn1c2cccc(Br)c2c2c(CC(=O)N3CCCC3)nn(-c3ccccc3)c(=O)c21` is higher in melting point: 89 to 92 °C for the first, 209 to 210 °C for the second.

Compared with `Nc1cc(-c2noc(-c3cnn4c(C(F)(F)F)cc(-c5ccc(C(F)(F)F)cc5)nc34)n2)ccn1`, `N#Cc1ccc(C2(COc3cccc4cc(NS(=O)(=O)C(F)(F)F)ccc34)N=CNO2)cc1` (centres undefined) is lower in melting point: 277 °C for the first, 184 to 185 °C for the second.

Compared with `OC1CSC(Oc2cccc(-c3ncccc3Cl)c2)C(O)C1O` (centres undefined), `O=C1Nc2ccc(Cl)cc2C1c1ccccc1Cl` (centres undefined) is lower in melting point: 217 °C for the first, 198 to 200 °C for the second.

First: CS(=O)(=O)NCCNCc1ccccc1
Second: CSC1CC(=O)N1CC(=O)c1ccccc1 (centres undefined)
The melting point of the first is higher: 71 to 73 °C for the first, 43 to 45 °C for the second.

First: CNS(=O)(=O)c1nc2ccc(O)cc2s1
Second: Cc1cccc(C)c1N(Cc1ccon1)C(=O)CCl
The melting point of the first is higher: 189 to 190 °C for the first, 78 to 81 °C for the second.

Compared with `C=CCOc1ccc(C[C@@H](NC(C)=O)C(=O)OC)cc1`, `CCOC(=O)C=Cc1ccc(CCNS(=O)(=O)C=Cc2ccc(Cl)cc2)cc1` is higher in melting point: 90 °C for the first, 131 to 132 °C for the second.

First: CC(C)(C)c1cc(-c2nc(Cl)nc(Cl)n2)cc(C(C)(C)C)c1O
Second: COc1cc(OC)nc(Oc2cccc(Oc3nc(OC)cc(OC)n3)c2C(=O)OCc2ccccc2)n1
The melting point of the first is higher: 178 to 179 °C for the first, 130 to 132 °C for the second.

Compared with `O=[N+]([O-])c1cc(CCl)cc([N+](=O)[O-])c1CCl`, `O=[N+]([O-])c1ccc(CCC2CCN(c3cc(Cl)nnc3Cl)CC2)cc1` is higher in melting point: 106 °C for the first, 162 to 164 °C for the second.

First: O=NCNC1=Nc2ccc(Br)cc2C(c2ccccn2)=NC1
Second: ClCc1cccc2cc(Br)ccc12
The melting point of the first is higher: 102 to 106 °C for the first, 73 to 76 °C for the second.

Compared with `C[C@@H]1C(=O)N(c2ccc(C#N)c(Cl)c2)[C@@H](C)[C@H]1O`, `COC(=O)/C=C/n1cnc2c(C(C)C)cc(C(C)C)cc2c1=O` is lower in melting point: 149 to 151 °C for the first, 102 to 103 °C for the second.

For `O=C1C=Cc2ccccc2C1(Cc1ccncc1)Cc1ccncc1`, the melting point was 111 to 112 °C.
